# Test results from patent US20090041876A1, “OIL/FAT-CONTAINING COMPOSITION FOR SUPPRESSION OF CARCINOGENESIS” (KANEKA CORPORATION, priority 2005, published 2009).
# Counter-ions that a name gives are not always drawn. Marks after values point to notes of the source that are not given here.
# Assays:
# GST-P-positive cell foci = assay: liver medium-term bioassay (Ito test): quantitative analysis of GST-P-positive cell foci in rat liver; type: in vivo
# Experimental: In order to examine the effect of the MCT solution of Example 1 on carcinogenesis, a search using a liver medium-term bioassay (Ito test) was performed. This test method is one of the two-step carcinogenesis models using rodents and is employed for rat liver. This test method has been used to search for 313 or more chemical substances, and is considered to be a reliable and useful method of searching for carcinogens or carcinogenesis-suppressing substances. Therefore, this test is accepted as an alternative to a conventional long-term carcinogenicity test in the Japan/US/EU Trilateral International Conference on Harmonization of Technical Requirements for Registration of Pharmaceuticals for Human Use (ICH). […]
# (§1) After a lapse of the third week of the experiment (one week after the start of test substance administration), partial hepatectomy was performed for all the animals, and lesions in the livers were amplified. […] The areas of the liver sections and the numbers and areas of GST-P-positive cell foci with diameters of 0.2 mm or more were measured using a pathological specimen image analyzer IPAP-WIN (Sumika Technoservice Corporation), and then the areas and numbers per cm^2 of the liver sections were calculated to perform a quantitative analysis. […]
# [1] = liver medium-term bioassay (Ito test): liver weights, general status, light and electron microscopical examination of livers; type: in vivo, rat; details: F344 male rats, DEN +, 500 ppm with feed (positive control)
# Experimental: Diethylnitrosamine (DEN) was administered intraperitoneally to the rats once at a dose of 200 mg/kg for the purpose of an initiation treatment for liver carcinogenesis, and from two weeks after the administration, a test substance, i.e., the MCT solution was forcibly administered orally at doses of 0 (control group), 150, 300, and 600 mg/kg once a day seven times/week for six weeks (Groups 1 to 4). The doses of the MCT solution used in this test (150, 300, and 600 mg/kg) correspond to 45, 90, and 180 mg/kg body weight in terms of a licorice extract serving as an effective ingredient. In addition, phenobarbital sodium salt (S. PB) was administered with a feed to a positive control group at a concentration of 500 ppm (Group 5). […]
# as §1
structure (smiles),measurement,setting,value
"CCC1(c2ccccc2)C(=O)NC(=O)NC1=O [Phenobarbital Sodium, phenobarbital sodium salt]",number and area per unit area of GST-P-positive cell foci versus control,"GST-P-positive cell foci; Group 5, DEN +, 500 ppm with feed",evidently high levels
same,"GST-P-positive cell foci, Area","GST-P-positive cell foci; rat liver, DEN +, 500 ppm with feed (positive control)",0.541 ± 0.160** mm^2/cm^2
same,"Liver weight, Absolute weight",[1],9.2781 ± 0.4913 g
same,"Liver weight, Relative weight",[1],3.3527 ± 0.1032 %
